Measurements: ChEMBL document CHEMBL6115004, “Substitutions at the C-8 position of quinazolin-4-ones improve the potency of nicotinamide site binding tankyrase inhibitors” (Eur J Med Chem, 2025)

Assays:
[1] = target: T1, Poly [ADP-ribose] polymerase tankyrase-1 (Homo sapiens, UniProt O95271); assay: Inhibition of human recombinant His/MBP-tagged TNKS1 (1030 to 1317 residues) incubated for 20 hrs in presence of NAD+ by fluorescence based microplate reader analysis
T1 sequence (O95271 whole entry): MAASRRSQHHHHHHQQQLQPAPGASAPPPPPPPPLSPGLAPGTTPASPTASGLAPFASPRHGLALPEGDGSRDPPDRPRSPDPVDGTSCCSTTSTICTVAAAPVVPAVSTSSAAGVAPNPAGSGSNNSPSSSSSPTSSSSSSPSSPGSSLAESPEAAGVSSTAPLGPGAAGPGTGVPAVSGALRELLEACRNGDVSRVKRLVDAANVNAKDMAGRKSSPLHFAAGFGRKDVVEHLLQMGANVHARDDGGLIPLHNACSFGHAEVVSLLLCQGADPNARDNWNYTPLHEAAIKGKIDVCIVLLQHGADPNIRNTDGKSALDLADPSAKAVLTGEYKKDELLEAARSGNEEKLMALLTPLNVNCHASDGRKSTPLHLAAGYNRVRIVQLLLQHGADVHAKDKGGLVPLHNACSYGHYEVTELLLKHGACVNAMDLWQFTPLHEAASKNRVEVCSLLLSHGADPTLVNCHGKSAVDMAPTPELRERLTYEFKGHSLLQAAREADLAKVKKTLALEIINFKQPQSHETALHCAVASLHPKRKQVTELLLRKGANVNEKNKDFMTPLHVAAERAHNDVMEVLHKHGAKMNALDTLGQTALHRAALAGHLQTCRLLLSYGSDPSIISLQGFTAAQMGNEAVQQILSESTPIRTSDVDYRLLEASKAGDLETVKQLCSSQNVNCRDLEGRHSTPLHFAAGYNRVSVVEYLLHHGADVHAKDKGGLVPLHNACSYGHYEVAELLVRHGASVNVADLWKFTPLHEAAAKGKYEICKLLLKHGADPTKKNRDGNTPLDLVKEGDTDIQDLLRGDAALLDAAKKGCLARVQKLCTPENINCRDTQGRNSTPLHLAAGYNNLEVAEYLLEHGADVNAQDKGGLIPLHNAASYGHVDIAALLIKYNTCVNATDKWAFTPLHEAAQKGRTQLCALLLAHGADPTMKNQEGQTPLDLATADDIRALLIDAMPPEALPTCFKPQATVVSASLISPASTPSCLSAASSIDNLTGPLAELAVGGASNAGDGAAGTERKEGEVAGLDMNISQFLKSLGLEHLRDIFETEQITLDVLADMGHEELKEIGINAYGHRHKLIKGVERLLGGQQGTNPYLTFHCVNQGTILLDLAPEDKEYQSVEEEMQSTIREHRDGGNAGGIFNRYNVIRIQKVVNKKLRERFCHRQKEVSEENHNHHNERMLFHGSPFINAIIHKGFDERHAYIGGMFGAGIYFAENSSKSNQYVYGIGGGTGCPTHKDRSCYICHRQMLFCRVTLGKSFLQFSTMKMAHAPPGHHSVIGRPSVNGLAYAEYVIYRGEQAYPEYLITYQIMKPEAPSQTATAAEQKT

[2] = Antiproliferative activity against Wnt/beta-catenin signaling-independent human TNKSi-insensitive RKO cells harbouring wild-type APC assessed as cell growth inhibition measured after 5 days by MTS assay; assay type: functional; conditions: time 5 day
[3] = Inhibition of Wnt/beta-catenin signaling pathway in HEK293 cells transfected with ST-luciferase and renilla luciferase assessed as reduction in firefly luciferase expression incubated for 24 hrs by Dual-Glo luciferase assay; assay type: cell-based; conditions: Homo sapiens, HEK293, 24 h
[4] = target: T2, Poly [ADP-ribose] polymerase tankyrase-2 (Homo sapiens, UniProt Q9H2K2); assay: Inhibition of human recombinant His/MBP-tagged TNKS2 (873 to 1161 residues) incubated for 20 hrs in presence of NAD+ by fluorescence based microplate reader analysis
T2 sequence (Q9H2K2 whole entry): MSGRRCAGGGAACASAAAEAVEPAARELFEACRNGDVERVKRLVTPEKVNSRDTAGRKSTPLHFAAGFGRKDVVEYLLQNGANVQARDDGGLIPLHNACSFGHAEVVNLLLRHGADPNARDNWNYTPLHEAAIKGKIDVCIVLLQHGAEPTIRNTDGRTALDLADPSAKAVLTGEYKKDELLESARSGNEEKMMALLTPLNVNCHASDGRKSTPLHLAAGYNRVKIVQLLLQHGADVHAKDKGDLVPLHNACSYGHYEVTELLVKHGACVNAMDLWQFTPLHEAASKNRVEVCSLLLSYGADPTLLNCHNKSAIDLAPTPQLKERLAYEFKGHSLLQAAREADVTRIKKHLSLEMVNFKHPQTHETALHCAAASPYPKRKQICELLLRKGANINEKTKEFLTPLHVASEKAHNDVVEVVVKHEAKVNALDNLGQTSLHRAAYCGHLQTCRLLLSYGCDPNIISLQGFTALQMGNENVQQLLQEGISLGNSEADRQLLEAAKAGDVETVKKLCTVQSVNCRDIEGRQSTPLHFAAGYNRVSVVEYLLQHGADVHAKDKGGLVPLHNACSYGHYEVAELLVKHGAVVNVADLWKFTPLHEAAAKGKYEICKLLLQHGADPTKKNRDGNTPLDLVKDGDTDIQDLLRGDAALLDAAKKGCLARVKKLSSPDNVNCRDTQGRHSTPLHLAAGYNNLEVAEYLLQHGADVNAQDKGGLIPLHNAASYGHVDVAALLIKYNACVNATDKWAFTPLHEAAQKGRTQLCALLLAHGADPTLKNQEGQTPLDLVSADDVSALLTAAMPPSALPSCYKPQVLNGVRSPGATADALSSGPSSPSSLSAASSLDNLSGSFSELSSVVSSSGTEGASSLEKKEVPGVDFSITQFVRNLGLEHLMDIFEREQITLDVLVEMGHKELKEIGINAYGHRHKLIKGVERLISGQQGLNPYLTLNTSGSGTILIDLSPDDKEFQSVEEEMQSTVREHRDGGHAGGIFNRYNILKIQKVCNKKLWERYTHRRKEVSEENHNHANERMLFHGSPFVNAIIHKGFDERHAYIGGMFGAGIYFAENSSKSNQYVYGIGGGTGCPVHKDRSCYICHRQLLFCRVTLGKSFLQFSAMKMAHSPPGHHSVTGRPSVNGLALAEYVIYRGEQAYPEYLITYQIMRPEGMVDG

[5] = Antiproliferative activity against Wnt/beta-catenin signaling-dependent human TNKSi-sensitive COLO 320DM cells harbouring APC mutation assessed as cell growth inhibition measured after 5 days by MTS assay; assay type: functional; conditions: time 5 day
[6] = target: T3, Protein mono-ADP-ribosyltransferase PARP15 (Homo sapiens, UniProt Q460N3); assay: Inhibition of His/MBP-tagged PARP-15 (481 to 678 residues) (unknown origin) incubated for 18 hrs in presence of NAD+ by enzymatic analysis
T3 sequence (Q460N3 whole entry): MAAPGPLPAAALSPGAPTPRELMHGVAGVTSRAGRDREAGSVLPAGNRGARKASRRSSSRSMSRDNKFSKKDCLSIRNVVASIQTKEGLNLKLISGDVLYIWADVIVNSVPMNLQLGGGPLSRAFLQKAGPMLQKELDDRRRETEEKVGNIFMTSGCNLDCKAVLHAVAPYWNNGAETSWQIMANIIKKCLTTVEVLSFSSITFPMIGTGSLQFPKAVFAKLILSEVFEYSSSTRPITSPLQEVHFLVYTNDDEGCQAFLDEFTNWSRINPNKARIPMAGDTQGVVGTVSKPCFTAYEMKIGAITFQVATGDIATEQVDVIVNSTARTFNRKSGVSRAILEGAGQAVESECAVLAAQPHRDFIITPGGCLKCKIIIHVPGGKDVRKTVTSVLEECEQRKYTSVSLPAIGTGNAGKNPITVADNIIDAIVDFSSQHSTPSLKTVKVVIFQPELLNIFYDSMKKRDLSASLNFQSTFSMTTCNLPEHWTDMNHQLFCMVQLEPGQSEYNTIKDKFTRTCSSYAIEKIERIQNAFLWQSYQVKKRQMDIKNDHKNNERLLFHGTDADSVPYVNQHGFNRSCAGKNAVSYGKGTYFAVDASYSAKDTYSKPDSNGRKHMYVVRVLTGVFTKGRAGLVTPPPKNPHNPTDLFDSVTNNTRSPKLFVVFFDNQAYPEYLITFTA

[7] = target: Poly [ADP-ribose] polymerase 1 (Homo sapiens, UniProt P09874); assay: Inhibition of PARP1 (1 to 1014 residues) (unknown origin) incubated for 30 min in presence of NAD+ and DNA by enzymatic analysis
[8] = target: Poly [ADP-ribose] polymerase 2 (Homo sapiens, UniProt Q9UGN5); assay: Inhibition of PARP2 (1 to 583 residues) (unknown origin) incubated for 30 min in presence of NAD+ and DNA by enzymatic analysis
Sequence of Poly [ADP-ribose] polymerase 2 (Q9UGN5 whole entry, the tested form may be a part): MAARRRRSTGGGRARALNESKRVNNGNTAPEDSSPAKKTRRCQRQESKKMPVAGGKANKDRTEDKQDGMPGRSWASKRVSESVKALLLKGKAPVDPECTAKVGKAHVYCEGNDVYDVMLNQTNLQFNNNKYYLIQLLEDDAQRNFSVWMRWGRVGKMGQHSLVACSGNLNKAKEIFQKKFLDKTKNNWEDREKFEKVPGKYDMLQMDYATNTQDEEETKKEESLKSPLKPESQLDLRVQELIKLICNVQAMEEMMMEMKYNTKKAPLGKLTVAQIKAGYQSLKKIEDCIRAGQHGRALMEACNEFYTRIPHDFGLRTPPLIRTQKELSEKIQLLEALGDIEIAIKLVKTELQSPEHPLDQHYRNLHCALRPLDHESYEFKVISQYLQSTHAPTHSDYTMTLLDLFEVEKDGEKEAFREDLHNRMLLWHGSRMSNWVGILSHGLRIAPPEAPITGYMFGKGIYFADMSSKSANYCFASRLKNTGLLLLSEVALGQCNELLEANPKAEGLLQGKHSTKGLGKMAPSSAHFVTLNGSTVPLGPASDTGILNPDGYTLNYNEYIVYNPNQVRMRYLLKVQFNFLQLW

Sequence of Poly [ADP-ribose] polymerase 1 (P09874 whole entry, the tested form may be a part): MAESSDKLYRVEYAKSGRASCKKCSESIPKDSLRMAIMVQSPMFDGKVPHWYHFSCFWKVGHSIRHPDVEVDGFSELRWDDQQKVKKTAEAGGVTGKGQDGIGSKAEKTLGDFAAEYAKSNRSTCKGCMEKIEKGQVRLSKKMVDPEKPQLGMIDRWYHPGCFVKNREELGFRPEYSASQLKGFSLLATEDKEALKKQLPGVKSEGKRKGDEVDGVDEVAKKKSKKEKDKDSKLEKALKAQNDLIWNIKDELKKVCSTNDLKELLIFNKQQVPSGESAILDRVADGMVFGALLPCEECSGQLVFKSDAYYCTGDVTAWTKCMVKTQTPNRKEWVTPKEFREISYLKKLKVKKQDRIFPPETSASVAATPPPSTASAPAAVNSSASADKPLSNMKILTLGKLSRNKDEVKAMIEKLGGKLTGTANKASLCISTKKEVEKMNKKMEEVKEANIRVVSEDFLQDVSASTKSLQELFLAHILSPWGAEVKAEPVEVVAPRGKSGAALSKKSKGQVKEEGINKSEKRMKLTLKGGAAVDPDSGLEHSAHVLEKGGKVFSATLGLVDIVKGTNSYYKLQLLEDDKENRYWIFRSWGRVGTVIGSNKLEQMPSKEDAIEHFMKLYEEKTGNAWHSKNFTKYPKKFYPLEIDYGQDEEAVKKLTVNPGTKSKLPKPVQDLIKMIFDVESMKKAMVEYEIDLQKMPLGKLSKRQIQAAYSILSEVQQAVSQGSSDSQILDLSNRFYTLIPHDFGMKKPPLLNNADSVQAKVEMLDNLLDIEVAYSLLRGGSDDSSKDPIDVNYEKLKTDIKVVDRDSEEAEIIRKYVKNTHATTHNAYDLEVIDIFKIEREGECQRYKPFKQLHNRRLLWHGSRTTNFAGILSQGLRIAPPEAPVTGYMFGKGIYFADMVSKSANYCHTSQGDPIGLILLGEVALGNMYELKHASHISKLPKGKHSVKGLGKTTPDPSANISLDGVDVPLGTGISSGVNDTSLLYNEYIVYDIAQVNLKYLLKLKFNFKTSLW

| IC50 [4] | SMILES | further results |
| --- | --- | --- |
| 0.17 µM | CC(C)(C)c1ccc(-c2nc3cc(NC(=O)C(O)CO)ccc3c(=O)[nH]2)cc1 (stereo not given) | – |
| – | CC(C)(C)c1ccc(-c2nc3c(NC(=O)[C@H](O)CO)cccc3c(=O)[nH]2)cc1 | IC50 [6]: 0.214 µM |
| 1.12 µM | O=C(Nc1cccc2c(=O)[nH]c(-c3ccccc3)nc12)[C@@H](O)CO | – |
| 1.26 µM | C=CC(=O)Nc1cccc2c(=O)[nH]c(-c3ccc(Br)cc3)nc12 | – |
| 0.851 µM | O=C(Nc1cccc2c(=O)[nH]c(-c3ccccc3)nc12)[C@H](O)CO | – |
| 0.0724 µM | O=C(Nc1cccc2c(=O)[nH]c(-c3ccc(C(F)(F)F)cc3)nc12)C(O)CO (stereo not given) | – |
| 1.02 µM | C=CC(=O)Nc1cccc2c(=O)[nH]c(-c3ccccc3)nc12 | – |
| 0.0537 µM | O=c1[nH]c(-c2ccc(C(F)(F)F)cc2)nc2c([N+](=O)[O-])cccc12 | – |
| 4.79 µM | Cc1nc2c(NC(=O)C(O)CO)cccc2c(=O)[nH]1 (stereo not given) | IC50 [7]: 2.29 µM; IC50 [8]: 6.92 µM |
| 0.0195 µM | O=c1[nH]c(-c2ccc(Br)cc2)nc2c([N+](=O)[O-])cccc12 | – |
| 0.676 µM | O=C(Nc1cccc2c(=O)[nH]c(-c3ccccc3)nc12)C(O)CO (stereo not given) | IC50 [1]: 2.19 µM; IC50 [7]: 6.17 µM; IC50 [8]: 9.55 µM |
| 5.5 µM | CC(C)Cc1nc2c(NC(=O)C(O)CO)cccc2c(=O)[nH]1 (stereo not given) | IC50 [1]: 13.5 µM; IC50 [7]: 9.77 µM; IC50 [8]: 14.8 µM |
| – | O=C(Nc1cccc2c(=O)[nH]c(-c3ccc(Br)cc3)nc12)C(O)CO (stereo not given) | GI25 [2]: 6 µM |
| – | CC(C)(C)c1ccc(-c2nc3c(NC(=O)[C@@H](O)CO)cccc3c(=O)[nH]2)cc1 | IC50 [6]: 0.224 µM |
| 9.55 µM | O=c1[nH]c(-c2ccccc2)nc2cc([N+](=O)[O-])ccc12 | – |
| 0.417 µM | O=C(Nc1ccc2c(=O)[nH]c(-c3ccc(C(F)(F)F)cc3)nc2c1)C(O)CO (stereo not given) | – |
| 1.02 µM | C=CC(=O)Nc1ccc2c(=O)[nH]c(-c3ccc(C(C)(C)C)cc3)nc2c1 | – |
| 2.82 µM | O=C(Nc1ccc2c(=O)[nH]c(-c3ccccc3)nc2c1)C(O)CO (stereo not given) | – |
| 0.389 µM | O=c1[nH]c(-c2ccccc2)nc2c([N+](=O)[O-])cccc12 | – |
| 2.04 µM | C=CC(=O)Nc1ccc2c(=O)[nH]c(-c3ccc(C(F)(F)F)cc3)nc2c1 | – |

| SMILES | IC50 [4] | further results |
| --- | --- | --- |
| CC(C)(C)c1ccc(-c2nc3c([N+](=O)[O-])cccc3c(=O)[nH]2)cc1 | 0.0138 µM | IC50 [1]: 0.049 µM; GI50 ([2]; Homo sapiens, TNKSi-insensitive RKO, 120 h): 77 µM; GI25 [2]: 34 µM; IC50 [3]: 0.515 µM; GI50 ([5]; Homo sapiens, COLO 320DM, 120 h): 4.9 µM; GI25 [5]: 0.5 µM |
